Assay results reported in US9556232B2, “Anti-angiogenic molecules, nanostructures and uses thereof” (Northwestern University, priority 2013, dated 2017).
“Also recorded” adds a separate entry of the source.

Tests used:
[1] = system: HUVECs; assay: Assay of angiogenesis in vitro by tube formation; type: cell-based, human; conditions: HUVECs on matrigel, imaged 5 hrs after addition of treatment
Experimental: Assay of Angiogenesis In Vitro by Tube Formation.
Wells of a 96-well plate were coated with ECMatrix solution, and 5×10^3 HUVECs were plated in triplicate wells in a volume of 50 μL of endothelial growth medium (EGM) containing 0.5% FBS with 50 ng/mL bFGF for 2 hours. MMPA, MMPep, ScramPA treatments at respective dosages were added to the wells for 5 hours. Tube formation was evaluated by phase-contrast microscopy using an Olympus IX-70 microscope (100× magnification) connected to a Diagnostic Instruments Spot RT Camera. Experiments were repeated independently three times.

[2] = Critical assembly concentration determination by nile red incorporation; type: physicochemical; conditions: in PBS, nile red blueshift in peak emission
Experimental: Critical Assembly Concentration Determination by Nile Red Incorporation.
MMPA, MMPep, or ScramPA solutions ranging from 100 nM to 200 μM concentration in PBS were made from stock solutions and NR dissolved in ethanol was diluted 200-fold into solutions to a final concentration of 500 nM. Using a NanoLogHJ spectrofluorometer, samples were excited at 550 nm and spectra were obtained between from 580 nm-750 nm. Blueshift was plotted against concentration to determine the critical assembly concentration.

[3] = system: chicken chorioallantoic membrane (CAM); assay: Characterization of angiogenesis in vivo by CAM assay; conditions: 1 mM in PBS from filter paper circles, embryonic day 5, 21 hrs and 42 hrs
Experimental: Characterization of Angiogenesis In Vivo by CAM Assay.
In vivo assessment of the anti-angiogenic potential of PAs and peptide was performed using the chicken chorioallantoic membrane (CAM). In this well-established CAM assay, angiogenesis of the extraembryonic allantois was measured at several time points after treatment with PAs or peptide. Fertilized chicken eggs (Sunnyside Hatchery) were received and cultured in a temperature controlled, humidified egg incubator. On embryonic day 3, eggs were cracked into 100 mm sterile petri dishes without breaking the yolk sac and were transferred to a water-jacketed humidified CO2 incubator set to 37° C. On embryonic day 5, 5 μL of treatment (PA, peptide, or scrambled PA dissolved in PBS at 1 mM) or control (PBS) solutions were deposited onto autoclaved filter paper circles ¼″ in diameter. Solution-soaked filter paper circles were placed on top of the CAM and digital images were captured using a Nikon stereomicroscope. Vessel density was quantified by counting the number of vessels intersecting the circumference of filter paper circles and is expressed relative to the initial time point. ANOVA with a Dunnett's Multiple Comparisons post-test of each treatment condition against control was performed using GraphPad Prism software. A minimum of n=5 samples was analyzed for each treatment condition at each time point.

[4] = system: HUVECs; assay: Flow cytometry and confocal microscopy to assess PA binding to HUVECs; type: cell-based, human
Experimental: Flow Cytometry and Confocal Microscopy to Assess PA Binding.
Stock fluorescent PA and peptide solutions were made by dissolving FITC-labeled molecules in PBS at a concentration of 200 μM (assuming peptide content of 90%). Stock fluorescent solutions were then mixed in equal volumes with 1 mM stock solutions of non-fluorescent PA or peptide solution and allowed to sit overnight at room temperature to make working solutions. Subconfluent human umbilical vein endothelial cells (HUVECs) were incubated for 2 hr in starvation media before detaching with 0.05% trypsin/EDTA. Cells were then spun down to remove trypsin/EDTA and were re-suspended in starvation media at 250,000/mL. Working peptide and PA solutions then added to cell suspensions such that the final concentration corresponded to 10 μM non-fluorescent molecule. After incubating at 37° C. for 30 mins, cells were spun down and resuspended in Hank's balanced salt solution (HBSS) twice. Fluorescence signal of each cell was quantified using a LSRFortessa cell analyzer (BD Biosciences). Cells were also plated on poly-d-lysine coated glass coverslips, fixed with 4% paraformaldehyde, and embedded in mounting media for imaging using an AIR laser scanning confocal microscope (Nikon). Machine parameters were kept constant for all samples in both confocal microscopy and flow cytometry experiments.

[5] = system: HUVECs; assay: Assessment of cell migration on fibronectin (live-cell imaging); type: cell-based, human; conditions: HUVECs on FN-coated glass, bFGF stimulus, 10 μM
Experimental: Assessment of Cell Migration on Fibronectin.
Fibronectin from human plasma was coated onto tissue culture-treated 4-chamber glass-bottom petri dishes (In Vitro Scientific) at 7 μg/cm2 as previously described. Subconfluent HUVECs were incubated for 2 hr in starvation media before detaching with 0.05% trypsin/EDTA. Cells were then spun down to remove trypsin/EDTA, re-suspended in starvation media, and plated onto glass-bottom petri dishes at a concentration of 4000 cells per chamber. After cells attached (approximately 1 hr at 37° C.)., the media was aspirated and replaced with starvation media containing […] basic fibroblast growth factor (bFGF) and 10 μM MMPA, MMPep, or Scram PA. Live-cell imaging was performed on a Nikon BioStation IM at 37° C., and cell migration was quantified manually using a plugin to track the location of the cell nucleus every 30 mins in ImageJ software. ANOVA with a Dunnett's Multiple Comparisons post-test of each treatment condition against control was performed using GraphPad Prism software. For control, MMPA, MMPep, and ScramPA, n=56, 54, 31, and 42 respectively.

[6] = system: HUVECs; assay: Assessment of cell adhesion on fibronectin (PicoGreen); type: cell-based, human; conditions: concentration not given
Experimental: Assessment of Cell Adhesion on Fibronectin.
The effect of peptide and PAs on HUVEC adhesion was assessed. Fibronectin from human plasma (Sigma) was dissolved in sterile MilliQ water and was added to tissue culture-treated 96 well plates at 5 μg/cm2, which were then left to dry overnight at room temperature in a sterile laminar flow hood. Coated plates were stored at 4° C. and warmed to 37° C. prior to use. Subconfluent HUVECs were incubated for 2 hr in starvation media (EndoGRO basal media from Millipore supplemented with 0.5% fetal bovine serum and 1× penicillin-streptomycin from Gibco) before detaching with 0.05% trypsin/EDTA. Cells were then spun down to remove trypsin/EDTA and were re-suspended in PBS containing peptide or PA molecules. Cells were incubated in treatment for 30 min at 37° C. and then plated at 15,000 cells/well. After 45 mins, wells were washed once with PBS to detach loosely adhered cells. A PicoGreen assay (Invitrogen) was used to quantify number of cells in each well. Cell counts were normalized to that obtained in wells with no treatment. Statistical analysis was performed in GraphPad Prism software using one-way analysis of variance (ANOVA) with a Bonferroni's Multiple Comparisons post-test comparing all pairs of columns. For all treatment groups, n=4.

## MMPep: 15-residue peptide: maspin g-helix sequence plus two residues on either end, EDESTGLEKIEKQLN, synthesized as previously reported [reference compound]
[1]
  inhibition of tube formation: slightly effective at greater than 10 μM; also recorded: partially inhibited tube formation at higher concentrations (10 μM)
[2]
  critical aggregation assembly concentration (CAC): > 200 µM
[3]
  angiogenesis in CAM (vessels intersecting filter paper circumference, normalized to initial count) vs PBS control: present but is statistically insignificant
[4]; FACS, HUVECs, FITC-labeled molecule mixed with non-fluorescent molecule, 10 μM, 30 mins 37° C.
  median FITC intensity per cell: 2.6 times that of untreated control
[4]; HUVECs treated with FITC-labeled PAs and peptide
  cell binding (FACS, HUVEC fluorescence): binds to cells significantly less effectively than PA nanostructures
[5]
  cell motility / migration vs PBS control: statistically less migratory (P<0.05); also recorded: significantly decrease cell motility over untreated controls
[5]; measured over at least 2 hrs and up to 8 hrs
  average cell migration speed: 0.30 μm/min
[6]
  HUVEC adhesion to FN surface vs untreated controls: do not show this effect; also recorded: unable to improve cell adhesion over untreated controls
